SMILES strings stand for the structures.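 1) Cells in 96-well plates. 2) Compound, 48 h, 5 concentrations. 3) Linear interpolation between surrounding doses. 4) Unreached endpoint = highest concentration. Abbreviation: GI50, concentration required for 50% inhibition of growth.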 Activity calls are given as the source filed them. No stated cut-off is given here; in the data, active = GI50 up to about 1.1 µM and inactive = higher.

Among the test systems are UACC-62; BT-549; U-251; UO-31; T47D; HCT-15; RPMI-8226; HT-29; DU-145; HCT-116; A498; NCI-H460; NCI-H226; MOLT-4; Hs-578T; 786-0; HOP-92; SNB-75; IGROV-1; KM12.
What all share (test): NCI-60 cell line screen, 48 h

For the compound `O=[N+]([O-])c1ccc(C(O)(C#CCN2CCCC2)c2ccccc2)cc1` (stereo not given), the GI50 is 24.7 µM (inactive) in the assay on UACC-62; 77.4 µM (inactive) with BT-549; 38.9 µM (inactive) in the assay with U-251; 26.1 µM (inactive) in the assay on UO-31; 28.5 µM (inactive) in the assay with T47D; 60.7 µM in the assay on HCT-15. For the same compound, the GI50 with RPMI-8226 was 26.7 µM (inactive); in the assay with HT-29, 17 µM (inactive); in the assay on DU-145 it was > 100 µM (inactive); in the assay on HCT-116 it was 46.6 µM (inactive); with A498, 23.3 µM (inactive); in the assay on NCI-H460 it was 56.2 µM (inactive). In addition, the GI50 in the assay on NCI-H226 is 81.5 µM (inactive); with MOLT-4, 25.8 µM (inactive); in the assay on Hs-578T it was 28.9 µM (inactive); in the assay with 786-0 it was 39.4 µM (inactive); in the assay on HOP-92 it was 10.2 µM (inactive); in the assay with SNB-75, 30.1 µM (inactive). The GI50 in the assay on IGROV-1 is 25.8 µM (inactive); with KM12, 41.8 µM (inactive).
`COc1cccc(C2c3cc4c(cc3OC(C)(O)C2C)OCO4)c1O` (stereo not given): the GI50 in the assay on UACC-62 is 5.12 µM (inactive); with BT-549, 9.71 µM (inactive); in the assay on U-251, 3.83 µM (inactive); in the assay on UO-31 it was 6.14 µM (inactive); with T47D, 3.82 µM (inactive); with HCT-15 it was 3.64 µM. Moreover, the GI50 was 4.17 µM (inactive) in the assay on RPMI-8226; 3.88 µM (inactive) in the assay with HT-29; 4.48 µM (inactive) with DU-145; 3.64 µM (inactive) in the assay on HCT-116; 3.24 µM (inactive) in the assay with A498; 3.81 µM (inactive) in the assay with NCI-H460. Further, the GI50 in the assay with NCI-H226 is 5.12 µM (inactive); with MOLT-4 it was 5.25 µM (inactive); with Hs-578T it was 2.68 µM (inactive); in the assay with 786-0 it was 4.44 µM (inactive); in the assay on HOP-92 it was 6 µM (inactive); with SNB-75, 5 µM (inactive). For the same compound, the GI50 with IGROV-1 is 5.2 µM (inactive); with KM12, 3.33 µM (inactive).
Consider `O=C1COCCN1C(=O)c1ccccc1Cl`, for which the GI50 in the assay with UACC-62 was > 100 µM (inactive); in the assay with BT-549 it was > 100 µM (inactive); in the assay with U-251 it was > 100 µM (inactive); with UO-31, > 100 µM (inactive); with T47D, > 100 µM (inactive); in the assay on HCT-15 it was greater than 100 µM. In addition, the GI50 with RPMI-8226, with HT-29, in the assay on DU-145, in the assay on HCT-116, in the assay on A498 and in the assay with NCI-H460 was > 100 µM (inactive) in each case. Further, the GI50 is > 100 µM (inactive) in the assay on NCI-H226; > 10 µM (inactive) with MOLT-4; > 100 µM (inactive) in the assay on Hs-578T; > 100 µM (inactive) in the assay on 786-0; > 100 µM (inactive) with HOP-92; > 100 µM (inactive) with SNB-75. The GI50 with IGROV-1 and in the assay with KM12 was > 100 µM (inactive) each time.
For `N#Cc1c(NC(=O)C(F)(F)F)sc2c3c(=O)c4ccccc4c(=O)c=3oc3ccccc3c12`, the GI50 in the assay with UACC-62 was 7.55 µM (inactive); in the assay with BT-549 it was 19.6 µM (inactive); with U-251, 14.7 µM (inactive); in the assay on UO-31, 19 µM (inactive); with T47D it was 21.4 µM (inactive); in the assay with HCT-15, 13.1 µM. Moreover, the GI50 is 12.7 µM (inactive) in the assay with RPMI-8226; 19.2 µM (inactive) in the assay with HT-29; 15.3 µM (inactive) with DU-145; 11.9 µM (inactive) with HCT-116; 33.3 µM (inactive) in the assay with A498; 17.6 µM (inactive) in the assay on NCI-H460. Also, the GI50 in the assay on NCI-H226 is 8.02 µM (inactive); in the assay on MOLT-4, 11.7 µM (inactive); in the assay on Hs-578T, 2.49 µM (inactive); in the assay with 786-0, 25.6 µM (inactive); with HOP-92, 19.7 µM (inactive); with SNB-75, 16.8 µM (inactive). Also, the values for the GI50 in the assay with IGROV-1 and in the assay on KM12 were 11.9 µM (inactive) and 9.84 µM (inactive), respectively.
In the case of `O=c1oc2ccccc2cc1-c1cn2ccccc2n1`, the GI50 in the assay on UACC-62 is 4.65 µM (inactive); in the assay with BT-549, 11.9 µM (inactive); in the assay with U-251, 2.33 µM (inactive); with UO-31 it was 2.36 µM (inactive); with T47D, 14.6 µM (inactive); in the assay on HCT-15, 16.7 µM. The GI50 is 10.4 µM (inactive) with RPMI-8226; 12.6 µM (inactive) in the assay with HT-29; 7.82 µM (inactive) in the assay with DU-145; 10.1 µM (inactive) in the assay on HCT-116; 2.24 µM (inactive) in the assay with A498; 4.16 µM (inactive) in the assay with NCI-H460. The GI50 is 8.43 µM (inactive) with NCI-H226; 18.6 µM (inactive) in the assay with MOLT-4; 4.5 µM (inactive) in the assay on Hs-578T; 3.8 µM (inactive) in the assay on 786-0; 16.6 µM (inactive) in the assay with HOP-92; 2.47 µM (inactive) with SNB-75. Also, the figures for the GI50 in the assay with IGROV-1 and in the assay with KM12 were 7.05 µM (inactive) and 10.5 µM (inactive), respectively.
As for `Cc1ccc(S(=O)(=O)N/N=C/C(=C/c2ccc(Cl)cc2)CC(/C=N/NS(=O)(=O)c2ccc(C)cc2)=C\c2ccc(Cl)cc2)cc1`, the GI50 is 5.08 µM (inactive) in the assay on UACC-62; 6.15 µM (inactive) in the assay on BT-549; 4.78 µM (inactive) in the assay with U-251; 5.62 µM (inactive) in the assay on UO-31; 4.78 µM (inactive) in the assay on T47D; 3.58 µM in the assay with HCT-15. For the same compound, the GI50 is 2.64 µM (inactive) in the assay with RPMI-8226; 5.51 µM (inactive) in the assay with HT-29; 25.8 µM (inactive) in the assay with DU-145; 4.6 µM (inactive) in the assay with HCT-116; 4.94 µM (inactive) with A498; 5.52 µM (inactive) in the assay on NCI-H460. Also, the GI50 is 15 µM (inactive) in the assay with NCI-H226; 2.55 µM (inactive) with MOLT-4; 3.68 µM (inactive) in the assay on Hs-578T; 2.19 µM (inactive) in the assay on 786-0; 2.23 µM (inactive) with HOP-92; 3.96 µM (inactive) with SNB-75. Further, the GI50 was 5.81 µM (inactive) with IGROV-1 and 7.87 µM (inactive) in the assay on KM12.
For `COC(=O)C(Cc1c[nH]c2ccccc12)NC1=Nc2ccncc2S(=O)(=O)N1c1ccccc1` (stereo not given), the GI50 was 3.15 µM (inactive) in the assay with UACC-62; 35 µM (inactive) in the assay on BT-549; 41.5 µM (inactive) with U-251; 32.6 µM (inactive) in the assay on UO-31; 20.5 µM (inactive) with T47D; 77.6 µM with HCT-15. The GI50 in the assay on RPMI-8226 was 13.1 µM (inactive); in the assay on HT-29 it was 18.9 µM (inactive); in the assay on DU-145, 41.4 µM (inactive); in the assay with HCT-116 it was 27.1 µM (inactive); with A498, > 100 µM (inactive); in the assay with NCI-H460, 98.2 µM (inactive). In addition, the GI50 with NCI-H226 was 14.1 µM (inactive); in the assay on MOLT-4, 15.3 µM (inactive); in the assay with Hs-578T, 56.1 µM (inactive); in the assay on 786-0 it was 33.3 µM (inactive); in the assay with HOP-92, 20.7 µM (inactive); in the assay on SNB-75, 20.7 µM (inactive). For the same compound, the GI50 with IGROV-1 is 31 µM (inactive); in the assay with KM12, 31.3 µM (inactive).
For the compound `Cc1nc2ccccc2n1Cc1ccc(NC(=S)Nc2ccccc2)cc1`, the GI50 with UACC-62 is 58.7 µM (inactive); in the assay on BT-549, 61.1 µM (inactive); with U-251, 82.6 µM (inactive); with UO-31, > 100 µM (inactive); with T47D it was 18.6 µM (inactive); with HCT-15 it was 72.8 µM. Also, the GI50 was 50 µM (inactive) with RPMI-8226; 32.8 µM (inactive) in the assay with HT-29; 73.8 µM (inactive) with DU-145; 31.6 µM (inactive) in the assay on HCT-116; 28.7 µM (inactive) in the assay on A498; 92.3 µM (inactive) in the assay with NCI-H460. Besides, the GI50 in the assay with NCI-H226 was 82.4 µM (inactive); in the assay on MOLT-4 it was 23.3 µM (inactive); in the assay on Hs-578T it was > 100 µM (inactive); in the assay on 786-0, > 100 µM (inactive); in the assay on HOP-92, 61.9 µM (inactive); in the assay with SNB-75, 63.8 µM (inactive). Besides, the GI50 in the assay with IGROV-1 is > 100 µM (inactive); in the assay on KM12, 54.6 µM (inactive).

Source of the values: ChEMBL document CHEMBL1201862, “PubChem BioAssay data set” (2004).
